{"source": "patent US5739169A", "about": "“Aromatic compounds for inhibiting immune response” (Procept, Incorporated, priority 1996, dated 1998)", "data": [{"test_system": "PBLs", "assay": "Mixed Lymphocyte Reactions (MLR) Assay", "type": "cell-based", "settings": "Homo sapiens, 3H-thymidine pulse on day 5, harvest 16 hours later", "experimental": "Mixed Lymphocyte Reactions (MLR) Assay\nBlood samples were drawn from two donors and the lymphocytes were separated out by Ficoll gradient by standard procedures known in the art. The isolated lymphocytes from done 1 were left untreated and the cells from donor 2 where suspended in Hanks Balanced Salt Solution at 10^7 /ml and treated with 50 micrograms/ml mitomycin C for 30 minutes at 37° C.\nThe PBLs were cultured in RPMI 1640 medium containing 5% human AB serum, glutamine (2 mM), penicillin/streptomycin (50 micrograms/ml / 50 micrograms/ml), sodium pyruvate (1 mM) and HEPES buffer (10 mM). For assay purposes, 10^5 PBLs from each donor were added to each well of a 96-well plate in a total volume of 200 microliters along with various dilutions of test compound.\nThe cultures were pulsed with 1 microCurie ^3 H-thymidine on day 5 and harvested 16 hours later onto a glass fiber filter. Thymidine incorporation was measured by liquid scintillation counting using a Beta plate counter. The IC50 represents the amount of compound necessary to inhibit 50 % of the thymidine incorporation.", "units": {"IC50": "µg/mL"}, "values": [{"smiles": "Nc1cccc(C(=O)c2cccc(Nc3ccccc3C(=O)O)c2)c1", "note": "[PRO4919]", "IC50": 5}]}, {"test_system": "human peripheral blood lymphocyte (PBL)", "assay": "cells", "type": "cell-based", "settings": "not given", "units": {"IC50": "µg/mL"}, "values": [{"smiles": "Nc1ccc(-c2ccc(Nc3ccccc3C(=O)O)cc2)cc1", "note": "[PRO4707]", "IC50": 0.086}, {"smiles": "COc1cc(-c2ccc(Nc3ccccc3C(=O)O)c(OC)c2)ccc1N", "note": "[PRO3249]", "IC50": 0.005}, {"smiles": "COC(=O)c1ccccc1Nc1ccc(-c2ccc(N)c(OC)c2)cc1OC", "note": "[PRO5021]", "IC50": 0.037}, {"smiles": "COc1cc(-c2ccc(Nc3ccccc3C(=O)O)c(OC)c2)ccc1Br", "note": "[PRO4402]", "IC50": 0.03}, {"smiles": "COc1cc(-c2ccc(Nc3ccccc3-c3nn[nH]n3)c(OC)c2)ccc1N", "note": "[PRO5105]", "IC50": "> 1"}, {"smiles": "COc1cc(-c2ccc(Nc3ccccc3C(=O)O)c(OC)c2)ccc1NC(C)=O", "note": "[PRO4379]", "IC50": 0.133}, {"smiles": "COc1cc(-c2ccc(N(C)C)c(OC)c2)ccc1Nc1ccccc1C(=O)O", "note": "[PRO6365]", "IC50": 0.194}, {"smiles": "O=C(O)c1ccccc1Nc1ccc(-c2ccccc2)cc1", "note": "[PRO4917]", "IC50": 0.296}, {"smiles": "COc1cc(-c2ccc(Nc3ccccc3C(=O)O)c(OC)c2)ccc1NC(=O)OC(C)(C)C", "note": "[PRO4323]", "IC50": 0.015}, {"smiles": "COc1cc(-c2ccc([N+](=O)[O-])c(OC)c2)ccc1Nc1ccccc1-c1nn[nH]n1", "note": "[PRO5106]", "IC50": "> 1"}, {"smiles": "CNc1ccc(-c2ccc(Nc3ccccc3C(=O)O)c(OC)c2)cc1OC", "note": "[PRO6370]", "IC50": 0.01}, {"smiles": "CC(=O)Nc1ccc(-c2ccc(Nc3ccccc3C(=O)O)cc2)cc1", "note": "[PRO5023]", "IC50": "> 1"}, {"smiles": "Nc1ccc(C(=O)c2ccc(Nc3ccccc3C(=O)O)cc2)cc1", "note": "[PRO4708]", "IC50": 0.345}, {"smiles": "COc1cccc(-c2ccc(Nc3ccccc3C(=O)O)c(OC)c2)c1", "note": "[PRO4403]", "IC50": 0.012}]}, {"test_system": "human transformed T cell line, H9", "assay": "H9 proliferation Assay", "type": "cell-based", "settings": "3 days culture, 3H-thymidine pulse on day 3, harvest 16 hours later", "experimental": "The human transformed T cell line, H9 (ATCC Rockville, Md.), was cultured at 3000/well in RPMI 1640 medium supplemented with 5 % human AB serum, glutamine (2 mM), penicillin/streptomycin (50 U/ml, 50 micrograms/ml), sodium pyruvate (1 mM), HEPES (10 mM), and non-essential amino acids (1X) in a total of 200 microliter/well in a 96 well plate. The H9 cells were cultured with and without various dilutions of test compound for 3 days.\nThe cells were pulsed on day 3 with 1 microCurie/well of ^3 H-thymidine using a standard procedure known in the art. The cells were then harvested 16 hours later onto glass fiber filters using a TOMTEC cell harvester. Cellular proliferation was assessed by thymidine incorporation and measured by liquid scintillation counting using a Beta plate counter (Pharmacia, Inc., Piscataway, N.J.). The IC 50 represents the amount of compound necessary to inhibit 50% of the thymidine incorporation.", "units": {"IC50": "µg/mL"}, "values": [{"smiles": "COc1cc(-c2ccc([N+](=O)[O-])c(OC)c2)ccc1Nc1ccccc1C(=O)O", "note": "[PRO4636]", "IC50": 3.2}]}]}
